Key:
[1] = Early-morning blood pressure and pulse rate in kidney transplant recipients; assay type: in vivo, human; conditions: for Diastolic blood pressure / Pulse rate: diltiazem 30 mg every 12 h
Description: All patients received a fixed dose of omeprazole 40 mg/day.
For calculation of AUC/D and C0/D, values of AUC and C0 were dose-adjusted by dividing the observed values by the dose recorded on the day of blood collection. Early-morning blood pressures were measured on the same day of blood collection for pharmacokinetic analysis by a ward nurse as part of a routine examination, during rest in a seated position with a calibrated and well-maintained automatic sphygmomanometer. Delayed graft function (DGF) was defined as failure of the kidney graft to function immediately, with the need for dialysis in the first 7 days post-KT. Episode of biopsy-proven acute rejection (BPAR) during 3 months post-KT was diagnosed based on histologic findings in indication kidney graft biopsy according to Banff 2015 criteria.

[2] = diltiazem 30 mg three times daily; day 7 after KT; CYP3A5 expressers; cited from earlier work
[3] = day 3 post-transplantation, CYP3A5 expressers (n = 11), mean ± SD
[4] = day 3 post-transplantation, CYP3A5 non-expressers (n = 9), mean ± SD
[5] = day 7 post-transplantation, CYP3A5 expressers (n = 11), mean ± SD
[6] = day 7 post-transplantation, CYP3A5 non-expressers (n = 9), mean ± SD

COc1ccc([C@@H]2Sc3ccccc3N(CCN(C)C)C(=O)[C@@H]2OC(C)=O)cc1 [Diltiazem]
Diastolic blood pressure ([1]; day 1 post-transplantation, CYP3A5 expressers (n = 11), mean ± SD): 89.2 ± 13.3 mmHg
Pulse rate ([1]; day 1 post-transplantation, CYP3A5 expressers (n = 11), median (IQR)): 82.0 (74.0, 86.0) bpm
Diastolic blood pressure ([1]; day 1 post-transplantation, CYP3A5 non-expressers (n = 9), mean ± SD): 87.4 ± 14.8 mmHg
Pulse rate ([1]; day 1 post-transplantation, CYP3A5 non-expressers (n = 9), median (IQR)): 82.0 (73.0, 86.0) bpm
Diastolic blood pressure [1, 3]: 86.8 ± 13.5 mmHg
Pulse rate [1, 3]: 86.6 ± 15.4 bpm
Diastolic blood pressure [1, 4]: 84.3 ± 14.0 mmHg
Pulse rate [1, 4]: 82.4 ± 7.2 bpm
Diastolic blood pressure [1, 5]: 77.8 ± 13.3 mmHg
Pulse rate [1, 5]: 80.2 ± 11.2 bpm
Diastolic blood pressure [1, 6]: 81.0 ± 7.3 mmHg
Pulse rate [1, 6]: 81.8 ± 8.6 bpm
Effects on blood pressure ([1]; diltiazem 60 mg/day, first week post-KT): No significant effects on blood pressure
Effect of diltiazem coadministration on tacrolimus dose-adjusted trough concentration (C0/D) [2]: Significantly higher

Source: publication PMC9393165 (Scientific Reports, 2022)
